The target in this test is T1, cGAMP binding domain of wild-type (GRR) human STING, residues 155-341 (Homo sapiens, UniProt Q86WV6, H232R).
T1 construct: His-TEV-hSTING (WT); TEV protease cleavage site (N); made in house; host or cells: E. coli BL21 DE3
T1 sequence (Q86WV6 with tags, fused parts or gaps H232R): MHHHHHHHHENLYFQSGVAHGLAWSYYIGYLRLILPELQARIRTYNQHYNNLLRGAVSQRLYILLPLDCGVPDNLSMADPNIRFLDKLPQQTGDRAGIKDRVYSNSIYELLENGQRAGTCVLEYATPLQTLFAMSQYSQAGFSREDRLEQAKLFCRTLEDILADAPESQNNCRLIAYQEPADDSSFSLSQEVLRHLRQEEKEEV
Kind of test: Increase of stability of STING protein against thermal denaturation, Differential Scanning Fluorimetry (DSF). In short, it runs like this: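 3 µM His-tagged protein with 100 uM compound, 5×SYPRO Orange, 2% DMSO in 20 mM Tris, 150 mM NaCl, pH7.5; 15–95 °C ramp in 0.5 °C steps (15 s/cycle). Tm from Boltzmann fit of the dye melt curve, duplicates averaged, repeated if SD>1.5 °C; ΔTm = Tm with compound minus Tm of protein alone.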
With `Cc1c(C(C)C)c(-c2cccc3nn(C[C@H](O)c4ccccc4)cc23)nn1-c1cc2cn(C)nc2nc1C1(F)CC1` [Example 51, (1R)-2-(4-{1-[6-(1-fluorocyclopropyl)-2-methyl-2H-pyrazolo[3,4-b]pyridin-5-yl]-5-methyl-4-(propan-2-yl)-1H-pyrazol-3-yl}-2H-indazol-2-yl)-1-phenylethan-1-ol], the DSF is 26 K.

Consider `Cc1c(C(C)C)c(-c2cccc3nn(C[C@H](O)c4ccccc4)cc23)nn1-c1cc2cn(C)nc2nc1C1CCCO1` (stereo partly drawn) [Example 13, (1R)-2-(4-{5-methyl-1-[2-methyl-6-(oxolan-2-yl)-2H-pyrazolo[3,4-b]pyridin-5-yl]-4-(propan-2-yl)-1H-pyrazol-3-yl}-2H-indazol-2-yl)-1-phenylethan-1-ol], for which the DSF is 30 K.

The compound `Cc1c(C2CC2)c(-c2c(F)ccc3nn(C[C@H](O)c4ccccc4)cc23)nn1-c1cc2cn(C)nc2nc1C1CC1` [Example 35, (1R)-2-[4-(4-cyclopropyl-1-{6-cyclopropyl-2-methyl-2H-pyrazolo[3,4-b]pyridin-5-yl}-5-methyl-1H-pyrazol-3-yl)-5-fluoro-2H-indazol-2-yl]-1-phenylethan-1-ol] returned a DSF of 29 K.

Regarding `Cc1nc2nn(C)cc2cc1-n1nc(-c2cccc3nn(C[C@H](OCCCCO)c4ccccc4)cc23)c(C(C)C)c1C` [Example 66, 4-[(1R)-2-[4-(1-{2,6-dimethyl-2H-pyrazolo[3,4-b]pyridin-5-yl}-5-methyl-4-(propan-2-yl)-1H-pyrazol-3-yl)-2H-indazol-2-yl]-1-phenylethoxy]butan-1-ol], the DSF is recorded as 23 K.

With `Cc1nc2nn(CC(O)CN3CCN(C)CC3)cc2cc1-n1nc(-c2cccc3nn(C[C@H](O)c4ccccc4)cc23)c(C(C)C)c1C` (stereo partly drawn) [Example 70, 1-[5-(3-{2-[(2R)-2-hydroxy-2-phenylethyl]-2H-indazol-4-yl}-5-methyl-4-(propan-2-yl)-1H-pyrazol-1-yl)-6-methyl-2H-pyrazolo[3,4-b]pyridin-2-yl]-3-(4-methylpiperazin-1-yl)propan-2-ol], the DSF was 24 K.

`Cc1nc2nn(CC(O)CO)cc2cc1-n1nc(-c2cccc3nn(C[C@H](O)c4ccccc4)cc23)c(C(C)C)c1C` (stereo partly drawn) [Example 67, 3-[5-(3-{2-[(2R)-2-hydroxy-2-phenylethyl]-2H-indazol-4-yl}-5-methyl-4-(propan-2-yl)-1H-pyrazol-1-yl)-6-methyl-2H-pyrazolo[3,4-b]pyridin-2-yl]propane-1,2-diol] had a DSF of 26 K.

With `Cc1nc2cc(C)c(-n3nc(-c4cccc5nn(C[C@H](O)c6ccccc6)cc45)c(C(C)C)c3C)cc2[nH]1` [Example 105, (1R)-2-{4-[1-(2,5-dimethyl-1H-1,3-benzodiazol-6-yl)-5-methyl-4-(propan-2-yl)-1H-pyrazol-3-yl]-2H-indazol-2-yl}-1-phenylethan-1-ol], the DSF stood at 24 K.

`Cc1ccc([C@@H](O)Cn2cc3c(-c4nc(-c5cc6cn(C)nc6nc5C(C)C)n(C)c4C4CC4)cccc3n2)cc1` [Example 25, (1R)-2-(4-{5-cyclopropyl-1-methyl-2-[2-methyl-6-(propan-2-yl)-2H-pyrazolo[3,4-b]pyridin-5-yl]-1H-imidazol-4-yl}-2H-indazol-2-yl)-1-(4-methylphenyl)ethan-1-ol] showed a DSF of 30 K.

As to `Cc1nc2nn(CCCC#N)cc2cc1-n1nc(-c2cccc3nn(C[C@H](O)c4ccccc4)cc23)c(C(C)C)c1C` [Example 2, 4-[5-(3-{2-[(2R)-2-hydroxy-2-phenylethyl]-2H-indazol-4-yl}-5-methyl-4-(propan-2-yl)-1H-pyrazol-1-yl)-6-methyl-2H-pyrazolo[3,4-b]pyridin-2-yl]butanenitrile], the DSF was found to be 28 K.

`Cn1c(-c2cc3cn(CCN4CCOCC4)nc3nc2C2CC2)nc(-c2cccc3nn(C[C@H](O)c4ccccc4)cc23)c1C1CC1` [Example 10, (1R)-2-[4-(5-cyclopropyl-2-{6-cyclopropyl-2-[2-(morpholin-4-yl)ethyl]-2H-pyrazolo[3,4-b]pyridin-5-yl}-1-methyl-1H-imidazol-4-yl)-2H-indazol-2-yl]-1-phenylethan-1-ol]: the DSF amounted to 30 K.

The values are drawn from patent US20260265244A1, “HETEROCYCLIC COMPOUNDS AS STING ANTAGONISTS” (Boehringer Ingelheim International GmbH, priority 2022, published 2026).
